Measured values from PMC10008561 (Nature Communications, 2023).

How the values were obtained:
Experiment in all cases: cell-based
human KOR (Gi1) [1] = target: T1, human KOR (Gi1) (Homo sapiens, UniProt P41145, N141A); details: HEK-293T
T1 construct: expressed in transfected cells; host or cells: HEK293T

human KOR (Gi1) [2] = target: T2, human KOR (Gi1) (Homo sapiens, UniProt P41145, D266A); details: HEK-293T
T2 construct: expressed in transfected cells; host or cells: HEK293T

human KOR (Gi1) [3] = target: T3, human KOR (Gi1) (Homo sapiens, UniProt P41145, Y320L); details: HEK-293T
T3 construct: expressed in transfected cells; host or cells: HEK293T
T3 sequence (P41145 whole entry Y320L): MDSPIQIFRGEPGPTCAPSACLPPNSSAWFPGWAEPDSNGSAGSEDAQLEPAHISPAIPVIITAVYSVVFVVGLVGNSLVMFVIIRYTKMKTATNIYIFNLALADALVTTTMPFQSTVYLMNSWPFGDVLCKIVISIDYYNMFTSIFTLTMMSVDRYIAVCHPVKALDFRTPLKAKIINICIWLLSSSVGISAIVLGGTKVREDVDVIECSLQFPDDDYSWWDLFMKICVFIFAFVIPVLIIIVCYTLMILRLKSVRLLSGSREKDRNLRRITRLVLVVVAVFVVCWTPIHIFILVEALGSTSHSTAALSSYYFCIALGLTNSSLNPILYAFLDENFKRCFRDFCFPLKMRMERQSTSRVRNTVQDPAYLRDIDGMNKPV

human KOR (Gi1) [4] = target: T4, human KOR (Gi1) (Homo sapiens, UniProt P41145, N326A); details: HEK-293T
T4 construct: expressed in transfected cells; host or cells: HEK293T
T4 sequence (P41145 whole entry N326A): as the sequence (P41145 whole entry Y320L) above, with L320Y, N326A counted along it

human KOR (Gi1) [5] = target: T5, human KOR (Gi1) (Homo sapiens, UniProt P41145, Q115N); details: HEK-293T
T5 construct: expressed in transfected cells; host or cells: HEK293T
T5 sequence (P41145 whole entry Q115N): as the sequence (P41145 whole entry Y320L) above, with Q115N, L320Y counted along it

human KOR (Gi1) [6] = target: T6, human KOR (Gi1) (Homo sapiens, UniProt P41145, F283A); details: HEK-293T
T6 construct: expressed in transfected cells; host or cells: HEK293T
T6 sequence (P41145 whole entry F283A): as the sequence (P41145 whole entry Y320L) above, with F283A, L320Y counted along it

human KOR (Gi1) [7] = target: T7, human KOR (Gi1) (Homo sapiens, UniProt P41145, T94V); details: HEK-293T
T7 construct: expressed in transfected cells; host or cells: HEK293T
T7 sequence (P41145 whole entry T94V): as the sequence (P41145 whole entry Y320L) above, with T94V, L320Y counted along it

human KOR (Gi1) [8] = target: T8, human KOR (Gi1) (Homo sapiens, UniProt P41145, F114L); details: HEK-293T
T8 construct: expressed in transfected cells; host or cells: HEK293T
T8 sequence (P41145 whole entry F114L): as the sequence (P41145 whole entry Y320L) above, with F114L, L320Y counted along it

human KOR (Gi1) [9] = target: T9, human KOR (Gi1) (Homo sapiens, UniProt P41145, R271A); details: HEK-293T
T9 construct: expressed in transfected cells; host or cells: HEK293T
T9 sequence (P41145 whole entry R271A): as the sequence (P41145 whole entry Y320L) above, with R271A, L320Y counted along it

human KOR (Gi1) [10] = target: T10, human KOR (Gi1) (Homo sapiens, UniProt P41145, G319L); details: HEK-293T
T10 construct: expressed in transfected cells; host or cells: HEK293T
T10 sequence (P41145 whole entry G319L): as the sequence (P41145 whole entry Y320L) above, with G319L, L320Y counted along it

human KOR (Gi1) [11] = target: T11, human KOR (Gi1) (Homo sapiens, UniProt P41145, R257A); details: HEK-293T
T11 construct: expressed in transfected cells; host or cells: HEK293T
T11 sequence (P41145 whole entry R257A): as the sequence (P41145 whole entry Y320L) above, with R257A, L320Y counted along it

human KOR (Gi1) [12] = target: T12, human KOR (Gi1) (Homo sapiens, UniProt P41145, Y139L); details: HEK-293T
T12 construct: expressed in transfected cells; host or cells: HEK293T
T12 sequence (P41145 whole entry Y139L): as the sequence (P41145 whole entry Y320L) above, with Y139L, L320Y counted along it

human KOR (Gi1) [13] = target: T13, human KOR (Gi1) (Homo sapiens, UniProt P41145, D334A); details: HEK-293T
T13 construct: expressed in transfected cells; host or cells: HEK293T
T13 sequence (P41145 whole entry D334A): as the sequence (P41145 whole entry Y320L) above, with L320Y, D334A counted along it

human KOR (Gi1) [14] = target: T14, human KOR (Gi1) (Homo sapiens, UniProt P41145, R170A); details: HEK-293T
T14 construct: expressed in transfected cells; host or cells: HEK293T
T14 sequence (P41145 whole entry R170A): as the sequence (P41145 whole entry Y320L) above, with R170A, L320Y counted along it

human KOR (Gi1) [15] = target: T15, human KOR (Gi1) (Homo sapiens, UniProt P41145, K200A); details: HEK-293T
T15 construct: expressed in transfected cells; host or cells: HEK293T
T15 sequence (P41145 whole entry K200A): as the sequence (P41145 whole entry Y320L) above, with K200A, L320Y counted along it

human KOR (Gi1) [16] = target: T16, human KOR (Gi1) (Homo sapiens, UniProt P41145, R274A); details: HEK-293T
T16 construct: expressed in transfected cells; host or cells: HEK293T
T16 sequence (P41145 whole entry R274A): as the sequence (P41145 whole entry Y320L) above, with R274A, L320Y counted along it

human KOR (Gi1) [17] = target: T17, human KOR (Gi1) (Homo sapiens, UniProt P41145, L253A); details: HEK-293T
T17 construct: expressed in transfected cells; host or cells: HEK293T
T17 sequence (P41145 whole entry L253A): as the sequence (P41145 whole entry Y320L) above, with L253A, L320Y counted along it

human KOR (Gi1) [18] = target: T18, human KOR (Gi1) (Homo sapiens, UniProt P41145, D155A); details: HEK-293T
T18 construct: expressed in transfected cells; host or cells: HEK293T
T18 sequence (P41145 whole entry D155A): as the sequence (P41145 whole entry Y320L) above, with D155A, L320Y counted along it

human KOR (Gi1) [19] = target: T19, human KOR (Gi1) (Homo sapiens, UniProt P41145, D105A); details: HEK-293T
T19 construct: expressed in transfected cells; host or cells: HEK293T
T19 sequence (P41145 whole entry D105A): as the sequence (P41145 whole entry Y320L) above, with D105A, L320Y counted along it

human KOR (β-arrestin 2) [20] = target: T20, human KOR (β-arrestin 2) (Homo sapiens, UniProt P41145, D334A); details: HEK-293T
T20 construct: expressed in transfected cells; host or cells: HEK293T
T20 sequence (P41145 whole entry D334A): as the sequence (P41145 whole entry Y320L) above, with L320Y, D334A counted along it

human KOR (β-arrestin 2) [21] = target: T21, human KOR (β-arrestin 2) (Homo sapiens, UniProt P41145, E297A); details: HEK-293T
T21 construct: expressed in transfected cells; host or cells: HEK293T
T21 sequence (P41145 whole entry E297A): as the sequence (P41145 whole entry Y320L) above, with E297A, L320Y counted along it

human KOR (β-arrestin 2) [22] = target: T22, human KOR (β-arrestin 2) (Homo sapiens, UniProt P41145, K200A); details: HEK-293T
T22 construct: expressed in transfected cells; host or cells: HEK293T
T22 sequence (P41145 whole entry K200A): as the sequence (P41145 whole entry Y320L) above, with K200A, L320Y counted along it

human KOR (β-arrestin 2) [23] = target: T23, human KOR (β-arrestin 2) (Homo sapiens, UniProt P41145, K227A); details: HEK-293T
T23 construct: expressed in transfected cells; host or cells: HEK293T
T23 sequence (P41145 whole entry K227A): as the sequence (P41145 whole entry Y320L) above, with K227A, L320Y counted along it

human KOR (β-arrestin 2) [24] = target: T24, human KOR (β-arrestin 2) (Homo sapiens, UniProt P41145, T94V); details: HEK-293T
T24 construct: expressed in transfected cells; host or cells: HEK293T
T24 sequence (P41145 whole entry T94V): as the sequence (P41145 whole entry Y320L) above, with T94V, L320Y counted along it

human KOR (β-arrestin 2) [25] = target: T25, human KOR (β-arrestin 2) (Homo sapiens, UniProt P41145)
T25 construct: expressed in transfected cells; host or cells: HEK293T
T25 sequence (P41145 whole entry): as the sequence (P41145 whole entry Y320L) above, with L320Y counted along it

human KOR (β-arrestin 2) [26] = target: T26, human KOR (β-arrestin 2) (Homo sapiens, UniProt P41145, Q115N); details: HEK-293T
T26 construct: expressed in transfected cells; host or cells: HEK293T
T26 sequence (P41145 whole entry Q115N): as the sequence (P41145 whole entry Y320L) above, with Q115N, L320Y counted along it

human KOR (β-arrestin 2) [27] = target: T27, human KOR (β-arrestin 2) (Homo sapiens, UniProt P41145, D155A); details: HEK-293T
T27 construct: expressed in transfected cells; host or cells: HEK293T
T27 sequence (P41145 whole entry D155A): as the sequence (P41145 whole entry Y320L) above, with D155A, L320Y counted along it

human KOR (β-arrestin 2) [28] = target: T28, human KOR (β-arrestin 2) (Homo sapiens, UniProt P41145, N322A); details: HEK-293T
T28 construct: expressed in transfected cells; host or cells: HEK293T
T28 sequence (P41145 whole entry N322A): as the sequence (P41145 whole entry Y320L) above, with L320Y, N322A counted along it

human KOR (β-arrestin 2) [29] = target: T29, human KOR (β-arrestin 2) (Homo sapiens, UniProt P41145, F114L); details: HEK-293T
T29 construct: expressed in transfected cells; host or cells: HEK293T
T29 sequence (P41145 whole entry F114L): as the sequence (P41145 whole entry Y320L) above, with F114L, L320Y counted along it

human KOR (β-arrestin 2) [30] = target: T30, human KOR (β-arrestin 2) (Homo sapiens, UniProt P41145, Y320L); details: HEK-293T
T30 construct: expressed in transfected cells; host or cells: HEK293T
T30 sequence (P41145 whole entry Y320L): as the sequence (P41145 whole entry Y320L) above

human KOR (β-arrestin 2) [31] = target: T31, human KOR (β-arrestin 2) (Homo sapiens, UniProt P41145, R170A); details: HEK-293T
T31 construct: expressed in transfected cells; host or cells: HEK293T
T31 sequence (P41145 whole entry R170A): as the sequence (P41145 whole entry Y320L) above, with R170A, L320Y counted along it

human KOR (β-arrestin 2) [32] = target: T32, human KOR (β-arrestin 2) (Homo sapiens, UniProt P41145, F283A); details: HEK-293T
T32 construct: expressed in transfected cells; host or cells: HEK293T
T32 sequence (P41145 whole entry F283A): as the sequence (P41145 whole entry Y320L) above, with F283A, L320Y counted along it

human KOR (β-arrestin 2) [33] = target: T33, human KOR (β-arrestin 2) (Homo sapiens, UniProt P41145, N141A); details: HEK-293T
T33 construct: expressed in transfected cells; host or cells: HEK293T
T33 sequence (P41145 whole entry N141A): as the sequence (P41145 whole entry Y320L) above, with N141A, L320Y counted along it

human KOR (β-arrestin 2) [34] = target: T34, human KOR (β-arrestin 2) (Homo sapiens, UniProt P41145, R257A); details: HEK-293T
T34 construct: expressed in transfected cells; host or cells: HEK293T
T34 sequence (P41145 whole entry R257A): as the sequence (P41145 whole entry Y320L) above, with R257A, L320Y counted along it

human KOR (β-arrestin 2) [35] = target: T35, human KOR (β-arrestin 2) (Homo sapiens, UniProt P41145, G319L); details: HEK-293T
T35 construct: expressed in transfected cells; host or cells: HEK293T
T35 sequence (P41145 whole entry G319L): as the sequence (P41145 whole entry Y320L) above, with G319L, L320Y counted along it

human KOR (β-arrestin 2) [36] = target: T36, human KOR (β-arrestin 2) (Homo sapiens, UniProt P41145, D266A); details: HEK-293T
T36 construct: expressed in transfected cells; host or cells: HEK293T
T36 sequence (P41145 whole entry D266A): as the sequence (P41145 whole entry Y320L) above, with D266A, L320Y counted along it

human KOR (β-arrestin 2) [37] = target: T37, human KOR (β-arrestin 2) (Homo sapiens, UniProt P41145, L253A); details: HEK-293T
T37 construct: expressed in transfected cells; host or cells: HEK293T
T37 sequence (P41145 whole entry L253A): as the sequence (P41145 whole entry Y320L) above, with L253A, L320Y counted along it

human KOR (β-arrestin 2) [38] = target: T38, human KOR (β-arrestin 2) (Homo sapiens, UniProt P41145, R271A); details: HEK-293T
T38 construct: expressed in transfected cells; host or cells: HEK293T
T38 sequence (P41145 whole entry R271A): as the sequence (P41145 whole entry Y320L) above, with R271A, L320Y counted along it

T1 sequence (P41145 whole entry N141A): as the sequence (P41145 whole entry Y320L) above, with N141A, L320Y counted along it
T2 sequence (P41145 whole entry D266A): as the sequence (P41145 whole entry Y320L) above, with D266A, L320Y counted along it

`CN(C(=O)/C=C/c1ccoc1)[C@@H]1CC[C@@]2(O)[C@H]3Cc4ccc(O)c5c4[C@@]2(CCN3CC2CC2)[C@H]1O5` [Nalfurafine, nalfurafine] showed an Emax (human KOR (Gi1) [1]) of 101%, an Emax (human KOR (Gi1) [2]) of 106% and an Emax (human KOR (Gi1) [3]) of 76.3%. For the same compound, the Emax (human KOR (Gi1) [4]) was 108%, the Emax (human KOR (Gi1) [5]) was 77.3% and the Emax (human KOR (Gi1) [6]) was 77.6%. It also gave an Emax (human KOR (Gi1) [7]) of 99.2%, an Emax (human KOR (Gi1) [8]) of 65.5% and an Emax (human KOR (Gi1) [9]) of 105%. The Emax (human KOR (Gi1) [10]) was 116%, the Emax (human KOR (Gi1) [11]) was 99.5% and the Emax (human KOR (Gi1) [12]) was 96.7%. For the same compound, the Emax (human KOR (Gi1) [13]) was 77.5%, the Emax (human KOR (Gi1) [14]) was 58.7% and the Emax (human KOR (Gi1) [15]) was 96.1%. It also gave an Emax (human KOR (Gi1) [16]) of 100%, an Emax (human KOR (Gi1) [17]) of 106% and an Emax (human KOR (Gi1) [18]) of 79.1%. For the same compound, the Emax (human KOR (Gi1) [19]) was 94.3%, the Emax (human KOR (β-arrestin 2) [20]) was 78% and the Emax (human KOR (β-arrestin 2) [21]) was 101%. It also gave an Emax (human KOR (β-arrestin 2) [22]) of 83.2%, an Emax (human KOR (β-arrestin 2) [23]) of 97.5% and an Emax (human KOR (β-arrestin 2) [24]) of 87.5%. For the same compound, the Emax% (human KOR (β-arrestin 2) [25]) was 80%, the Emax (human KOR (β-arrestin 2) [25]; HEK-293T) was 100 ± 4% and the Emax (human KOR (β-arrestin 2) [26]) was 67%. The Emax (human KOR (β-arrestin 2) [27]) was 90.2%, the Emax (human KOR (β-arrestin 2) [28]) was 87.1% and the Emax (human KOR (β-arrestin 2) [29]) was 48.7%. It also gave an Emax (human KOR (β-arrestin 2) [30]) of 65.9%, an Emax (human KOR (β-arrestin 2) [31]) of 100 ± 8.6% and an Emax (human KOR (β-arrestin 2) [32]) of 100%. The Emax (human KOR (β-arrestin 2) [33]) was 90.6%, the Emax (human KOR (β-arrestin 2) [34]) was 103% and the Emax (human KOR (β-arrestin 2) [35]) was 71%. The Emax (human KOR (β-arrestin 2) [36]) was 101%, the Emax (human KOR (β-arrestin 2) [37]) was 107% and the Emax (human KOR (β-arrestin 2) [38]) was 101 ± 8.2%.
